This note sets out measurements from patent US7534811B2, “Cyclic onium compounds and glucosidase inhibitors” (Kinki University, priority 2003, dated 2009).

Assay [1] has as its target small intestinal α-glucosidase (maltase). Nature of the assay: Concentration for 50% inhibition, small intestinal α-glucosidase, maltose substrate. The note with it: rat intestinal brush border membrane vesicles; substrate maltose (74 mM); pH6.0; 37° C., 30 minutes. Format: biochemical. As to the method: (§1) Rat intestinal brush border membrane vesicles were prepared, and a suspension in a 0.1M maleic acid salt buffer solution (pH6.0) was used as small intestinal α-glucosidase (maltase and saccharase).
(§2) 0.05 ml of sample compound solutions of differing concentration were added, respectively, to 0.1 ml of a substrate solution of sucrose (74 mM) and maltose (74 mM), and the solution was preheated at 37° C. for 2 to 3 minutes. 0.05 ml of an enzymatic solution was added thereto and the solution was allowed to incubate for 30 minutes. After incubation, 0.8 ml of water was added thereto and the solution was heated in a boiling water bath for 2 minutes to deactivate the enzyme. Blank was prepared as follows. After the enzymatic solution was added to each sample, water was immediately added, and the resulting mixture was heated in a boiling water bath for 2 minutes to deactivate the enzyme. The amount of d-glucose formed therein was measured using a glucose oxidase method. The substrate and test samples were dissolved in a 0.1M maleic acid buffer solution (pH6.0). The concentrations for 50% inhibition (IC50) were calculated based on the values obtained.

Assay [2] deals with T1, small intestinal α-glucosidase (saccharase) (Rattus norvegicus, UniProt P23739).
T1 construct: Rat intestinal brush border membrane vesicles were prepared; from tissue; host or cells: rat small intestine, brush border membrane vesicles
T1 sequence (P23739 whole entry): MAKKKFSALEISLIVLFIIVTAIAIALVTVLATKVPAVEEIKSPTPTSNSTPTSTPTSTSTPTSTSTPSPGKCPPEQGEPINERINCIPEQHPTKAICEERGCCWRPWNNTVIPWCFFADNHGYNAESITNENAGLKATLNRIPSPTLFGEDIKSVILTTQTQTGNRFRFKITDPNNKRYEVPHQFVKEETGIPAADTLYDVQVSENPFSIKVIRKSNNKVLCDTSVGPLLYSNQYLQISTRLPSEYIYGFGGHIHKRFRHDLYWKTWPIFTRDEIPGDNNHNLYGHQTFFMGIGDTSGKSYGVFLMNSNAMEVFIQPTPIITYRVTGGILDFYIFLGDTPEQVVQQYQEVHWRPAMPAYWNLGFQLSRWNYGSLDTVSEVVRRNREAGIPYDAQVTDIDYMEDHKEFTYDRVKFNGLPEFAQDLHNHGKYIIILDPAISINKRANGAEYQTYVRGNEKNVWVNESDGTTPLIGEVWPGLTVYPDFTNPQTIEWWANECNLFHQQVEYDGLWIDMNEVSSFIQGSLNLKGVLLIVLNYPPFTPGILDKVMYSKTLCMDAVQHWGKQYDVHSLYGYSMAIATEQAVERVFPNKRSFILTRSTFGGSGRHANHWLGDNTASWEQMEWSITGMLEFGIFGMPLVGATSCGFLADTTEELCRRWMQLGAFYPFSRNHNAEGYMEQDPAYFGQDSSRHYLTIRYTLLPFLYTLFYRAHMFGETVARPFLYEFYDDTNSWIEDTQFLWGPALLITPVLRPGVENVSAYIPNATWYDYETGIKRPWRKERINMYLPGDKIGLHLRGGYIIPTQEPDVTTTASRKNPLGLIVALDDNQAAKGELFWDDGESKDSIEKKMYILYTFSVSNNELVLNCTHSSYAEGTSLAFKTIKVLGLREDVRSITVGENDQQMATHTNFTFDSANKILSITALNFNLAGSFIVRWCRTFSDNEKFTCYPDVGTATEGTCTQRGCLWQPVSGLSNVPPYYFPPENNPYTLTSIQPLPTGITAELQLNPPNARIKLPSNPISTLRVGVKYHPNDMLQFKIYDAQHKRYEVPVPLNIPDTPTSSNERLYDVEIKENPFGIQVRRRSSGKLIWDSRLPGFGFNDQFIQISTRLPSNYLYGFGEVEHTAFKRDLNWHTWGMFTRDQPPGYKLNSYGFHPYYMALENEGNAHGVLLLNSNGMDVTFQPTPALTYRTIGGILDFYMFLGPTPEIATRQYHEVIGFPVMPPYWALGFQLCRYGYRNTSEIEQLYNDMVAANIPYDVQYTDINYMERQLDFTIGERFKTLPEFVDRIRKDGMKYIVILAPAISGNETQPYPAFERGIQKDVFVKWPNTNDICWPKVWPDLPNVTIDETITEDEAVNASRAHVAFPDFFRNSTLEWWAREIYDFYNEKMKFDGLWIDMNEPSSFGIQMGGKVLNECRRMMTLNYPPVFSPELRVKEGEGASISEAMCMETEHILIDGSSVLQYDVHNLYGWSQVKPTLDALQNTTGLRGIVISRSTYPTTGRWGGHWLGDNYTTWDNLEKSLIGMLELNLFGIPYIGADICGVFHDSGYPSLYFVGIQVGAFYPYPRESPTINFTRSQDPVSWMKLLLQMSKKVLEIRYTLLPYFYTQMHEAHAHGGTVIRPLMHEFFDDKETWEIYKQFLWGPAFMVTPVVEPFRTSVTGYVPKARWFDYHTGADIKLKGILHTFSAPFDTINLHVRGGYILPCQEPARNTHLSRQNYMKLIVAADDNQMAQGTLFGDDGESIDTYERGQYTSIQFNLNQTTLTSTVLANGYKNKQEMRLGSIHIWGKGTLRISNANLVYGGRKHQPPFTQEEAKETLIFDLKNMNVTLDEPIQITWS
Nature of the assay: Concentration for 50% inhibition, small intestinal α-glucosidase, sucrose substrate. Type of assay: biochemical. The note with it: rat intestinal brush border membrane vesicles; substrate sucrose (74 mM); pH6.0; 37° C., 30 minutes; read-out: IC50 (μg/ml) Sucrose (converted). As to the method: as §1, §2

In the case of `OC[C@@H]1[C@@H](O)[C@H](O)C[S@@+]1C[C@@H](O)[C@@H](O)CO` [Compound 1], the “IC50 (μg/ml) Maltose” value in assay [1] stood at 5.71 µg/mL. In assay [2], the IC50 was 5.29 µM.
For `C[S+]1C[C@H](O)[C@@H](O)[C@@H]1CO` (stereo partly shown) [Compound 2], the “IC50 (μg/ml) Maltose” value in assay [1] is 79.3 µg/mL. Besides, the IC50 in assay [2] is 339 µM.
